The values below come from US20230139171A1 (SITA Information Networking Computing UK Limited, priority 2019, published 2023).

Holding throughout (format): cell-based
One assay concerns the target T1, human TLR9 (Homo sapiens, UniProt Q9NR96).
T1 construct: host or cells: HEK-Blue cells
T1 sequence (Q9NR96 26-1032): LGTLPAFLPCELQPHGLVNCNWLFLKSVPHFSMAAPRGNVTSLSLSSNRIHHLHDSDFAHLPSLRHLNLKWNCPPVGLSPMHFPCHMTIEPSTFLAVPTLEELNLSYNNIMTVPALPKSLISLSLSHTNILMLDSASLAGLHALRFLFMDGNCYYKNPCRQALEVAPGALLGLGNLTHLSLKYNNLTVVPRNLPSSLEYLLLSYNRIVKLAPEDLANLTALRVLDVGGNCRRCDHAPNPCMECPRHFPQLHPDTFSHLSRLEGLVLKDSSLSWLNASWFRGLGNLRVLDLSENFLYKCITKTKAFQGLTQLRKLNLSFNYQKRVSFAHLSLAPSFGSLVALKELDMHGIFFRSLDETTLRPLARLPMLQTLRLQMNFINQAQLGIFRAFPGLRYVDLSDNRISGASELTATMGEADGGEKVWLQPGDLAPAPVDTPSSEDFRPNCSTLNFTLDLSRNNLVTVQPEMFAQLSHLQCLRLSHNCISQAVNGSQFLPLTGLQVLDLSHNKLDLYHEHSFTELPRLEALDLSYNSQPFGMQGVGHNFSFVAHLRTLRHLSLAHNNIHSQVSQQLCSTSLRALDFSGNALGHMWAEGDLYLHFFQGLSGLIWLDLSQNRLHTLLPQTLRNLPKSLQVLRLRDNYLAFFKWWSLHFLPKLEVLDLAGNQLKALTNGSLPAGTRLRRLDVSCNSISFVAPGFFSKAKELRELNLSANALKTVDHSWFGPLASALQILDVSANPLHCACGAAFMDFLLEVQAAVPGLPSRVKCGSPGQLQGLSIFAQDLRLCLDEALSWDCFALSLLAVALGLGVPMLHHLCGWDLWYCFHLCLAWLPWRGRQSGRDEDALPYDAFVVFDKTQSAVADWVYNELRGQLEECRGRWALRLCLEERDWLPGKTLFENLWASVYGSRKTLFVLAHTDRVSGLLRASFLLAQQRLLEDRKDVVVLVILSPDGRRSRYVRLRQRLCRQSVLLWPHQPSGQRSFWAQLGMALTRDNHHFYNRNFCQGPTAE
In words: TLR9 inhibition reporter assay (HEK-Blue cells, SEAP reporter, ODN2006 stimulation). As to conditions: HEK-Blue cells overexpressing human TLR9, SEAP reporter, ODN2006 5 nM. The gist of the method: (§1)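 Dose–response from 0.05 nM to 50 μM was run in HEK-Blue human TLR7, TLR8 and TLR9 reporter cells. After 30 min at room temperature with compound, ligand was added (TLR7 gardiquimod 7.5 μM; TLR8 R848 15.9 μM; TLR9 ODN2006 5 nM) and SEAP measured next day, at 22 h.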

The target of a further assay is T2, human TLR8 (Homo sapiens, UniProt Q9NR97).
T2 construct: host or cells: HEK-Blue cells
T2 sequence (Q9NR97 27-1041): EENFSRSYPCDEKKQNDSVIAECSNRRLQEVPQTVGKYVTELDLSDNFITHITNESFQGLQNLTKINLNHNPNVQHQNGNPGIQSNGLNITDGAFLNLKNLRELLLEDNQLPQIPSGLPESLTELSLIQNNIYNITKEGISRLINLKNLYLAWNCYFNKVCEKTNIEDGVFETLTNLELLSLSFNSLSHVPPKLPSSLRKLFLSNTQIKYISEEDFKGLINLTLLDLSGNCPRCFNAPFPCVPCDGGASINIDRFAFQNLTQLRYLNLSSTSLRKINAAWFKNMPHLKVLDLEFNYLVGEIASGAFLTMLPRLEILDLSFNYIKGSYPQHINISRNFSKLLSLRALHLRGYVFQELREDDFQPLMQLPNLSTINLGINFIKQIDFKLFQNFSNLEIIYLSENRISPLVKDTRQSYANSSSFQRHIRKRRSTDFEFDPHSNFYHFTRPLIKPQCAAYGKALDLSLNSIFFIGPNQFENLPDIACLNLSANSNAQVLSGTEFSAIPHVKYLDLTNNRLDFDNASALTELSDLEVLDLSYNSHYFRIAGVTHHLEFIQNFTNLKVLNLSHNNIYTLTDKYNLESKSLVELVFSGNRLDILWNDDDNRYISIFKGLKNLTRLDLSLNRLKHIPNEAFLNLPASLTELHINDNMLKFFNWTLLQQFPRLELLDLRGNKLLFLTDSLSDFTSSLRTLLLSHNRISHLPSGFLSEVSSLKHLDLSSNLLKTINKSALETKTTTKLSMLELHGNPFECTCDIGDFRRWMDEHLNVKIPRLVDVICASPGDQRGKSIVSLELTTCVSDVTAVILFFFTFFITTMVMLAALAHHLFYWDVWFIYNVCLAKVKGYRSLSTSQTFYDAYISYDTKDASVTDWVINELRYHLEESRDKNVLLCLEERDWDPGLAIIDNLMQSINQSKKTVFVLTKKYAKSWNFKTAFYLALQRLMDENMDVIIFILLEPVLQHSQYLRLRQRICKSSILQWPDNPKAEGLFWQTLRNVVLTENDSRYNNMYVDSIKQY
Put plainly: TLR8 inhibition reporter assay (HEK-Blue cells, SEAP reporter, R848 stimulation). As to conditions: HEK-Blue cells overexpressing human TLR8, SEAP reporter, R848 15.9 μM; read-out: TLR8 IC50. The method in brief:
as §1
In general terms: A reporter such as luciferase makes a cellular process visible.

The target of a further assay is T3, human TLR7 (Homo sapiens, UniProt Q9NYK1).
T3 construct: host or cells: HEK-Blue cells
T3 sequence (Q9NYK1 27-1049): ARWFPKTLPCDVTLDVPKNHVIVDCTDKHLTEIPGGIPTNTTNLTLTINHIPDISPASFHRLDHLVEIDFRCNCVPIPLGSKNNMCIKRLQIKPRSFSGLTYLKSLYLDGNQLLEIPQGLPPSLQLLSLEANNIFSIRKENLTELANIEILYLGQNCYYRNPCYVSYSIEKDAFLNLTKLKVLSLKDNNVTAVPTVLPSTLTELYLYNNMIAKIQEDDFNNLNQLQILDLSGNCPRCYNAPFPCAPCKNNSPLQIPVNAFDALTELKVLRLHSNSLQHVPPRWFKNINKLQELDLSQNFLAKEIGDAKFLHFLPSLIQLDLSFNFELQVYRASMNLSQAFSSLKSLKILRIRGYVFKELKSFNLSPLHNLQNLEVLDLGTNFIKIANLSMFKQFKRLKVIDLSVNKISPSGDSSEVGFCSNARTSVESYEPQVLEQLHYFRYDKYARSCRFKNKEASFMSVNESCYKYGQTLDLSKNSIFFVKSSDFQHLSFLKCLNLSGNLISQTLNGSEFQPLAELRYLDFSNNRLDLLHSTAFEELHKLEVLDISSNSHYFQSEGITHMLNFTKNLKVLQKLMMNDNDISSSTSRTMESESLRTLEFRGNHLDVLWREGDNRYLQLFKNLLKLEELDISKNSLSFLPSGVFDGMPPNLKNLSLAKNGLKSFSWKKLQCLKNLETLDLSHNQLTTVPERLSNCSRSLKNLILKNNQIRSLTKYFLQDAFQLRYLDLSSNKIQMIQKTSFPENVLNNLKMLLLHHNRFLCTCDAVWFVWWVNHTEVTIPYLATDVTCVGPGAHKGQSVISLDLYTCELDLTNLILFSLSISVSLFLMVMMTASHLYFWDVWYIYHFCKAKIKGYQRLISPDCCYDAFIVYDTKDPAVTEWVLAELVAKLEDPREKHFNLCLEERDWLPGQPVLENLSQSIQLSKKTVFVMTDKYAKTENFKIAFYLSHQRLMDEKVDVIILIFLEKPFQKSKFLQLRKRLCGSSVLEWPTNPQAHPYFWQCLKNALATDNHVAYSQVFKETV
Put plainly: TLR7 inhibition reporter assay (HEK-Blue cells, SEAP reporter, gardiquimod stimulation). Conditions: HEK-Blue cells overexpressing human TLR7, SEAP reporter, gardiquimod 7.5 μM; read-out: TLR7 IC50. The method in brief:
as §1

As a reminder, the IC50 is the midpoint of a concentration-inhibition curve. For the compound `COc1cc(-c2[nH]c3sc(C4CCC(N5CC[C@@H](NC(C)=O)C5)CC4)nc3c2C(C)C)cn2ncnc12` (single isomer, unassigned) [Example 101], the IC50 on human TLR9 worked out at 4.79 µM; at human TLR8, 0.023 µM; on human TLR7 it was 0.00368 µM.

Consider `COc1cc(-c2[nH]c3sc(C4CCC(N5CCCOCC5)CC4)nc3c2C(C)C)cn2ncnc12` (single isomer, unassigned) [Example 102, 4-(4-(6-isopropyl-5-(8-methoxy-[1,2,4]triazolo[1,5-a]pyridin-6-yl)-4H-pyrrolo[3,2-d]thiazol-2-yl)cyclohexyl)-1,4-oxazepane], for which the values for the IC50 against human TLR9, at human TLR8 and at human TLR7 were 3.89 µM, 0.014 µM and 0.00037 µM, respectively.

With `COc1cc(-c2[nH]c3sc(C4CCC(N5CCCOCC5)CC4)nc3c2C(C)C)cn2ncnc12` (single isomer, unassigned) [Example 103, 4-(4-(6-isopropyl-5-(8-methoxy-[1,2,4]triazolo[1,5-a]pyridin-6-yl)-4H-pyrrolo[3,2-d]thiazol-2-yl)cyclohexyl)-1,4-oxazepane], the half-inhibitory concentration (IC50) on human TLR9 is 3.6 µM; at human TLR8, 0.00346 µM; on human TLR7, 0.048 µM.

Regarding `COc1cc(-c2[nH]c3sc(C4CCC(N5[C@@H]6CC[C@H]5COC6)CC4)nc3c2C(C)C)cn2ncnc12` (single isomer, unassigned) [Example 104], the half-maximal inhibitory concentration (IC50) against human TLR9 was 5.6 µM; on human TLR8 it was 0.00281 µM; on human TLR7, 0.00198 µM.

On to `COc1cc(-c2[nH]c3sc(C4CCC(N5[C@@H]6CC[C@H]5COC6)CC4)nc3c2C(C)C)cn2ncnc12` (single isomer, unassigned) [Example 105], for which the concentration for half-maximal inhibition (IC50) against human TLR9 came out at 2.18 µM; at human TLR8, 0.0432 µM; at human TLR7 it was 0.00138 µM.

Consider `COc1cc(-c2[nH]c3sc(C4CCC(NC5(C)CCC5)CC4)nc3c2C(C)C)cn2ncnc12` (single isomer, unassigned) [Example 108, 4-(6-isopropyl-5-(8-methoxy-[1,2,4]triazolo[1,5-a]pyridin-6-yl)-4H-pyrrolo[3,2-d]thiazol-2-yl)-N-(1-methylcyclobutyl) cyclohexan-1-amine], for which the IC50 was 5.7 µM at human TLR9, 0.00449 µM at human TLR8 and 0.00134 µM at human TLR7.

`COc1cc(-c2[nH]c3sc(C4CCC(NC5(C)CCC5)CC4)nc3c2C(C)C)cn2ncnc12` (single isomer, unassigned) [Example 109, 4-(6-isopropyl-5-(8-methoxy-[1,2,4]triazolo[1,5-a]pyridin-6-yl)-4H-pyrrolo[3,2-d]thiazol-2-yl)-N-(1-methylcyclobutyl) cyclohexan-1-amine]: the IC50 amounted to 6.09 µM against human TLR9, 0.0279 µM on human TLR8 and 0.00681 µM at human TLR7.

As for `COc1cc(-c2[nH]c3sc(C4CCC(N5CC6(CCOCC6)C5)CC4)nc3c2C(C)C)cn2ncnc12` (single isomer, unassigned) [Example 110, 2-(4-(6-isopropyl-5-(8-methoxy-[1,2,4]triazolo[1,5-a]pyridin-6-yl)-4H-pyrrolo[3,2-d]thiazol-2-yl)cyclohexyl)-7-oxa-2-azaspiro[3.5]nonane], the IC50 against human TLR9 was 5.78 µM; on human TLR8 it was 0.00093 µM; on human TLR7, 0.00221 µM.

As for `COc1cc(-c2[nH]c3sc(C4CCC(N5CC6(CCOCC6)C5)CC4)nc3c2C(C)C)cn2ncnc12` (single isomer, unassigned) [Example 111, 2-(4-(6-isopropyl-5-(8-methoxy-[1,2,4]triazolo[1,5-a]pyridin-6-yl)-4H-pyrrolo[3,2-d]thiazol-2-yl)cyclohexyl)-7-oxa-2-azaspiro[3.5]nonane], the IC50 came to 3.93 µM on human TLR9, 0.0337 µM on human TLR8 and 0.00297 µM at human TLR7.

Take `COc1cc(-c2[nH]c3sc(C4CCC(N5CCC6(CC5)COC6)CC4)nc3c2C(C)C)cn2ncnc12` (single isomer, unassigned) [Example 112, 7-(4-(6-isopropyl-5-(8-methoxy-[1,2,4]triazolo[1,5-a]pyridin-6-yl)-4H-pyrrolo[3,2-d]thiazol-2-yl)cyclohexyl)-2-oxa-7-azaspiro[3.5]nonane]: the half-maximal inhibitory concentration (IC50) against human TLR9 is greater than 50 µM; at human TLR8, 0.0283 µM; on human TLR7, 0.0114 µM.

For the compound `COc1cc(-c2[nH]c3sc(C4CCC(N5CCC6(CC5)COC6)CC4)nc3c2C(C)C)cn2ncnc12` (single isomer, unassigned) [Example 113, 7-(4-(6-isopropyl-5-(8-methoxy-[1,2,4]triazolo[1,5-a]pyridin-6-yl)-4H-pyrrolo[3,2-d]thiazol-2-yl)cyclohexyl)-2-oxa-7-azaspiro[3.5]nonane], the IC50 against human TLR9 was 7.8 µM; on human TLR8 it was 0.0271 µM; at human TLR7, 0.00109 µM.
